Reference: patent US20240158446A1, “CYCLIC COMPOUND HAVING SELECTIVE INHIBITORY ACTION ON KRAS OVER HRAS AND NRAS” (CHUGAI SEIYAKU KABUSHIKI KAISHA, priority 2021, published 2024)

Experiments:
[1] = target: GDP-bound NRAS wild-type protein (Homo sapiens, UniProt P01111); experiment: Binding to NRAS by surface plasmon resonance (SPR), Single Cycle Kinetics; details: SPR, GDP-bound NRAS wild-type protein vs GDP-bound KRAS wild-type protein
[2] = target: GDP-bound HRAS wild-type protein (Homo sapiens, UniProt P01112); experiment: Binding to HRAS by surface plasmon resonance (SPR), Single Cycle Kinetics; details: SPR, GDP-bound HRAS wild-type protein vs GDP-bound KRAS wild-type protein
[3] = target: GDP-bound KRAS wild-type protein (Homo sapiens, UniProt P01116); experiment: Binding to KRAS by surface plasmon resonance (SPR), Single Cycle Kinetics; details: SPR, Single Cycle Kinetics, GDP-bound KRAS wild-type protein; read-out: KRAS KD
Chain of GDP-bound KRAS wild-type protein (P01116 whole entry): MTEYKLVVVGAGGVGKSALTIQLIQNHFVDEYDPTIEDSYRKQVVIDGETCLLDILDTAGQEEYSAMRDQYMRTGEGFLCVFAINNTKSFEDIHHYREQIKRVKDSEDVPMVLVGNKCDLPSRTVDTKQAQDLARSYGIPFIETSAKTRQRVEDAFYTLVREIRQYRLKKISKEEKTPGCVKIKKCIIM

Chain of GDP-bound HRAS wild-type protein (P01112 whole entry): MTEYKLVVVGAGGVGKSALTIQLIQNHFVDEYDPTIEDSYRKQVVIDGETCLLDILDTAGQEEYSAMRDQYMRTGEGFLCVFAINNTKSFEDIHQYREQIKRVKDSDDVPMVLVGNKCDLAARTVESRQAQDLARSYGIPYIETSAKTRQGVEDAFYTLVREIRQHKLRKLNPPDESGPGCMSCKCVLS
Chain of GDP-bound NRAS wild-type protein (P01111 whole entry): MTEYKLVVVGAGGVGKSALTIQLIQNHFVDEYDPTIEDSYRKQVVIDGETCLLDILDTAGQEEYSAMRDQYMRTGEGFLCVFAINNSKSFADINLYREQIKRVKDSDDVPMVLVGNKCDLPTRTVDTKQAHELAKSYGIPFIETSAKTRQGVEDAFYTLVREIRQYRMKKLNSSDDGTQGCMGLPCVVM

SMILES | NRAS/KRAS (ratio of KD value for NRAS to KD value for KRAS) [1] | HRAS/KRAS (ratio of KD value for HRAS to KD value for KRAS) [2] | Kd [3]
CC[C@H](C)[C@@H]1NC(=O)[C@H](COC)N(C)C(=O)C[C@@H](C(=O)N2CCOCC2)N(C)C(=O)[C@H](C2CCCC2)N(C)C(=O)C2(CCCC2)NC(=O)[C@@H]2CCCN2C(=O)[C@H](CCc2ccc(C(F)(F)F)c(Cl)c2)NC(=O)CN(C)C(=O)[C@H](Cc2ccc(F)cc2)N2CCCCC[C@@H](C2=O)N(C)C(=O)CN(C)C1=O [PP0960] | B (a compound having 3 or more and less than 10 is denoted as B) | B (a compound having 3 or more and less than 10 is denoted as B) | 0.37 nM
CC[C@H](C)[C@@H]1NC(=O)[C@H](CC(C)C)N(C)C(=O)C[C@@H](C(=O)N2CCOCC2)N(C)C(=O)[C@H](C2CCCC2)N(C)C(=O)C2(CCCC2)NC(=O)[C@@H]2CC(F)(F)CN2C(=O)[C@H](CCc2ccc(C(F)(F)F)c(Cl)c2)NC(=O)CN(C)C(=O)[C@H](Cc2ccc(F)cc2)N2CCCCC[C@@H](C2=O)N(C)C(=O)CN(C)C1=O [PP0966] | B (a compound having 3 or more and less than 10 is denoted as B) | B (a compound having 3 or more and less than 10 is denoted as B) | 0.23 nM
CC[C@H](C)[C@@H]1NC(=O)[C@H](CC(C)C)N(C)C(=O)C[C@@H](C(=O)N2CCOCC2)N(C)C(=O)[C@H](C2CCCC2)N(C)C(=O)C2(CCC2)NC(=O)[C@@H]2CCCN2C(=O)[C@H](CCc2ccc(C(F)(F)F)c(Cl)c2)NC(=O)CN(C)C(=O)[C@H](Cc2ccc(F)cc2)N2CCCCC[C@@H](C2=O)N(C)C(=O)CN(C)C1=O [PP0967] | B (a compound having 3 or more and less than 10 is denoted as B) | B (a compound having 3 or more and less than 10 is denoted as B) | 0.33 nM
CC[C@H](C)[C@@H]1NC(=O)[C@H](CC(C)C)N(C)C(=O)C[C@@H](C(=O)N2CCOCC2)N(CC)C(=O)[C@H](C2CCCC2)N(C)C(=O)C2(CCCC2)NC(=O)[C@@H]2CCCN2C(=O)[C@H](CCc2ccc(C(F)(F)F)c(Cl)c2)NC(=O)CN(C)C(=O)[C@H](Cc2ccc(F)cc2)N2CCCCC[C@@H](C2=O)N(C)C(=O)CN(C)C1=O [PP0970] | B (a compound having 3 or more and less than 10 is denoted as B) | B (a compound having 3 or more and less than 10 is denoted as B) | 2.2 nM
CC[C@H](C)[C@@H]1NC(=O)[C@H](CC(C)C)N(C)C(=O)C[C@@H](C(=O)N(C)C)N(C)C(=O)[C@H](C2CCCC2)N(C)C(=O)C2(CCC2)NC(=O)[C@@H]2CC(F)(F)CN2C(=O)[C@H](CCc2ccc(C(F)(F)F)c(Cl)c2)NC(=O)CN(C)C(=O)[C@H](Cc2ccc(F)cc2)N2CCCCC[C@@H](C2=O)N(C)C(=O)CN(C)C1=O [PP0973] | B (a compound having 3 or more and less than 10 is denoted as B) | B (a compound having 3 or more and less than 10 is denoted as B) | 0.085 nM
CCO[C@@H]1C[C@H]2C(=O)NC3(CCC3)C(=O)N(C)[C@@H](C3CCCC3)C(=O)N(CCC3CCCC3)[C@H](C(=O)N(C)C)CC(=O)N(C)[C@@H](CC(C)C)C(=O)N[C@@H]([C@@H](C)CC)C(=O)N(C)CC(=O)N(C)[C@H]3CCCCCN(C3=O)[C@@H](Cc3ccc(F)cc3)C(=O)N(C)CC(=O)N[C@@H](CCc3ccc(C(F)(F)F)c(Cl)c3)C(=O)N2C1 [PP0976] | B (a compound having 3 or more and less than 10 is denoted as B) | B (a compound having 3 or more and less than 10 is denoted as B) | 4.8 nM
CC[C@H](C)[C@@H]1NC(=O)[C@H](CC(C)C)N(C)C(=O)C[C@@H](C(=O)N(C)C)N(CCC2CCCC2)C(=O)[C@H](C2CCCC2)N(C)C(=O)C2(CCC2)NC(=O)[C@@H]2CC(F)(F)CN2C(=O)[C@H](CCc2ccc(C(F)(F)F)c(Cl)c2)NC(=O)CN(C)C(=O)[C@H](Cc2ccc(F)cc2)N2CCCCC[C@@H](C2=O)N(C)C(=O)CN(C)C1=O [PP0977] | B (a compound having 3 or more and less than 10 is denoted as B) | A (a compound having 10 or more and less than 20 is denoted as A) | 7.7 nM
CCO[C@@H]1C[C@H]2C(=O)NC3(CCC3)C(=O)N(C)[C@@H](C3CCCC3)C(=O)N(C)[C@H](C(=O)N(C)C)CC(=O)N(C)[C@@H](CC)C(=O)N[C@@H]([C@@H](C)CC)C(=O)N(C)CC(=O)N(C)[C@H]3C/C=C\CCN(C3=O)[C@@H](Cc3ccc(C(F)(F)F)cc3)C(=O)N(C)CC(=O)N[C@@H](CCc3ccc(C(F)(F)F)c(Cl)c3)C(=O)N2C1 [PP0978, (2S,8S,12R,14S,20S,23S,27S,30S,36S,38Z)-8-[2-[3-chloro-4-(trifluoromethyl)phenyl]ethyl]-20-cyclopentyl-12-ethoxy-27-ethyl-N,N,4,19,22,26,32,35-octamethyl-30-[(1S)-1-methylpropyl]-3,6,9,15,18,21,25,28,31,34,42-undecaoxo-2-[[4-(trifluoromethyl)phenyl]methyl]spiro[1,4,7,10,16,19,22,26,29,32,35-undecazatricyclo[34.5.1.0^10,14]dotetracont-38-ene-17,1′-cyclobutane]-23-carboxamide] | A (a compound having 10 or more and less than 20 is denoted as A) | B (a compound having 3 or more and less than 10 is denoted as B) | 0.088 nM
CCO[C@@H]1C[C@H]2C(=O)NC3(CCC3)C(=O)N(C)[C@@H](C3CCCC3)C(=O)N(CC)[C@H](C(=O)N(C)C)CC(=O)N(C)[C@@H](CC)C(=O)N[C@@H]([C@@H](C)CC)C(=O)N(C)CC(=O)N(C)[C@H]3C/C=C\CCN(C3=O)[C@@H](Cc3ccc(C(F)(F)F)cc3)C(=O)N(C)CC(=O)N[C@@H](CCc3cc(F)c(C(F)(F)F)c(F)c3)C(=O)N2C1 [PP0980] | A (a compound having 10 or more and less than 20 is denoted as A) | B (a compound having 3 or more and less than 10 is denoted as B) | 0.88 nM
CCO[C@@H]1C[C@H]2C(=O)NC3(CCC3)C(=O)N(C)[C@@H](C3CCCC3)C(=O)N(CCC3CCCC3)[C@H](C(=O)N3CCOCC3)CC(=O)N(C)[C@@H](CC)C(=O)N[C@@H]([C@@H](C)CC)C(=O)N(C)CC(=O)N(C)[C@H]3C/C=C\CCN(C3=O)[C@@H](Cc3ccc(C(F)(F)F)cc3)C(=O)N(C)CC(=O)N[C@@H](CCc3cc(F)c(C(F)(F)F)c(F)c3)C(=O)N2C1 [PP0981] | AA (a compound having 20 or more is denoted as AA) | A (a compound having 10 or more and less than 20 is denoted as A) | 11 nM
CCO[C@@H]1C[C@H]2C(=O)NC3(CCC3)C(=O)N(C)[C@@H](C3CCCC3)C(=O)N(CCC3CCCC3)[C@H](C(=O)N(C)C)CC(=O)N(C)[C@@H](CC)C(=O)N[C@@H]([C@@H](C)CC)C(=O)N(C)CC(=O)N(C)[C@H]3C/C=C\CCN(C3=O)[C@@H](Cc3ccc(C(F)(F)F)cc3)C(=O)N(C)CC(=O)N[C@@H](CCc3cc(F)c(C(F)(F)F)c(F)c3)C(=O)N2C1 [PP0982] | AA (a compound having 20 or more is denoted as AA) | A (a compound having 10 or more and less than 20 is denoted as A) | 0.99 nM
CCO[C@@H]1C[C@H]2C(=O)NC3(CCC3)C(=O)N(C)[C@@H](C3CCCC3)C(=O)N(C)[C@H](C(=O)N(C)C)CC(=O)N(C)[C@@H](CC)C(=O)N[C@@H]([C@@H](C)CC)C(=O)NCC(=O)N(C)[C@H]3C/C=C\CCN(C3=O)[C@@H](Cc3ccc(C(F)(F)F)cc3)C(=O)N(C)CC(=O)N[C@@H](CCc3cc(F)c(C(F)(F)F)c(F)c3)C(=O)N2C1 [PP0983, (2S,8S,12R,14S,20S,23S,27S,30S,36S,38Z)-20-cyclopentyl-8-[2-[3,5-difluoro-4-(trifluoromethyl)phenyl]ethyl]-12-ethoxy-27-ethyl-N,N,4,19,22,26,35-heptamethyl-30-[(1S)-1-methylpropyl]-3,6,9,15,18,21,25,28,31,34,42-undecaoxo-2-[[4-(trifluoromethyl)phenyl]methyl]spiro[1,4,7,10,16,19,22,26,29,32,35-undecazatricyclo[34.5.1.0^10,14]dotetracont-38-ene-17,1′-cyclobutane]-23-carboxamide] | A (a compound having 10 or more and less than 20 is denoted as A) | A (a compound having 10 or more and less than 20 is denoted as A) | 0.078 nM
CCO[C@@H]1C[C@H]2C(=O)NC3(CCC3)C(=O)N(C)[C@@H](C3CCCC3)C(=O)N(C)[C@H](C(=O)N(C)C)CC(=O)N(C)[C@@H](CC)C(=O)N[C@@H]([C@@H](C)CC)C(=O)N3CC[C@H]3C(=O)N(C)[C@H]3C/C=C\CCN(C3=O)[C@@H](Cc3ccc(C(F)(F)F)cc3)C(=O)N(C)CC(=O)N[C@@H](CCc3cc(F)c(C(F)(F)F)c(F)c3)C(=O)N2C1 [PP0984] | A (a compound having 10 or more and less than 20 is denoted as A) | A (a compound having 10 or more and less than 20 is denoted as A) | 0.28 nM
